Experimental findings from US11179400B2, “Heterocyclic compounds as RSV inhibitors” (priority 2019, dated 2021) are described below.

Read-outs that look alike come from different tables or passages of the source.

The test system of this test is Human RSV-A (“Long” strain). The test is described as follows: RSV in vitro cytoprotection assay in HEp-2 cells (ATPlite read-out). Type of test: cell-based. The following applies: human respiratory syncytial virus. The text has this: RSV is a single stranded negative sense RNA virus that causes respiratory tract infections which can be dangerous to infants, the elderly, and immunosuppressed individuals. Currently there is no vaccine, and therapeutic options are both costly and of limited effectiveness. These approved treatments are Ribavirin, and Palivizumab/Synagis (a monoclonal antibody). RSV has two genotypes, A and B, which differ primarily in the structure of the virus' surface “G” attachment protein. Our current primary screen focusses on RSV-A and uses an in vitro cytoprotection assay where compounds are added in 2-fold dilutions to cells which are then subjected to fully replicative viral particles. Cell viability is measured several days later along with separate measurements of compound cytotoxicity. This report focuses on the results of our most recent screening of compounds.
HEp-2 cells, (originally derived from tumors grown in irradiated-cortisonised weanling rats that had been injected with epidermoid carcinoma tissue from a person's larynx, but later found to be indistinguishable from HeLa cells by PCR DNA analysis), were used for the culturing of genotype A, “Long” strain RSV. Flasks were inoculated with RSV and viral stocks were collected once cytopathic effect (CPE) was greater than 90%. Viral stocks in 25% sucrose media were snap frozen using liquid nitrogen to increase viral stability. Viral stock titers were quantified by tissue culture infectious dose 50% (TCID50) using 8,000 cells per well and 3-fold viral dilutions across a 96-well plate, cultured for 4 days.
Following extensive parameter testing, the final assay is run as follows: HEp-2 cells are seeded into the inner 60 wells of a 96-well plate at 8,000 cells per well in a volume of 50 μL using Growth Media (DMEM without phenol red, 1% L-Glut, 1% Penn/Strep, 1% nonessential amino acids, 10% FBS). 2-Fold serial dilutions of control and test compounds are added to the wells in duplicate in a total volume of 25 μL. Viral stock is then added to the wells in a volume of 25 μL, bringing the total volume of each well to 100 μL. Each 96-well plate has a control column of 6 wells with cells and virus but no compound (negative control, max CPE), a column with cells but no compound or virus (positive control, minimum CPE), and a column with no cells or virus or compound (background plate/reagent control). The control wells with cells but no virus are given an additional 25 μL of growth media containing an equal quantity of sucrose as those wells receiving the viral stock in order to keep consistent in media and volume conditions. The outer wells of the plate are filled with 125 μL of growth media to act as a thermal and evaporative moat around the test wells. Following a 4-day incubation period, the plates are read using ATPlite (50 uL added per well), which quantifies the amount of ATP (a measure of cell health) present in each well. Assay plates are read using the Envision luminometer. In parallel, cytotoxicity is examined on an additional 96-well plate treated in an identical manner, but substituting the 25 μL of viral stock for 25 μL of growth media. […] EC50 ranges are as follows: A<0.01 μM; B 0.01-0.05 μM; C>0.05 μM.

The mark [1] stands for this setting: 96 h, HEp-2 cells, genotype A “Long” strain RSV, 4-day incubation, ATPlite, read-out: Human RSV-A (“Long” strain) EC50.

For the compound `Cc1cnc(N2CC3(CCOCC3)C2)c(C(=O)Nc2ccc(C(=O)N3CCC(c4ccc(C(=O)NC5CC5)s4)=Cc4ccccc43)cc2)c1` [Example 1], under setting [1], the EC50 is < 10 nM.

Regarding `Cc1cnc(N2CC3(CCOCC3)C2)c(C(=O)Nc2ccc(C(=O)N3CCC(c4ccc(C(=O)Nc5c(F)cccc5F)s4)=Cc4ccccc43)cc2)c1` [Example 2], the concentration giving a half-maximal response (EC50) under setting [1] was < 10 nM.

As to `Cc1cnc(N2CC3(CCOCC3)C2)c(C(=O)Nc2ccc(C(=O)N3CCC(c4ccc(C(=O)NC5CCC5)s4)=Cc4ccccc43)cc2)c1` [Example 3], under setting [1], the EC50 was < 10 nM.

Take `Cc1cnc(N2CC3(CCOCC3)C2)c(C(=O)Nc2ccc(C(=O)N3CCC(c4ccc(C(=O)NC5CC(F)(F)C5)s4)=Cc4ccccc43)cc2)c1` [Example 4]: the 50% effective concentration (EC50) under setting [1] was < 10 nM.

As for `Cc1cnc(N2CC3(CCOCC3)C2)c(C(=O)Nc2ccc(C(=O)N3CCC(c4ccc(C(=O)NC56CC(C5)C6)s4)=Cc4ccccc43)cc2)c1` [Example 5], the EC50 under setting [1] is 10 to 50 nM.

As to `Cc1cnc(N2CC3(CCOCC3)C2)c(C(=O)Nc2ccc(C(=O)N3CCC(c4ccc(C(=O)Nc5c(C)cccc5F)s4)=Cc4ccccc43)cc2)c1` [Example 6], under setting [1], the concentration for a half-maximal effect (EC50) was 10 to 50 nM.

For the compound `Cc1ccc(C(=O)Nc2ccc(C(=O)N3CCC(c4ccc(C(=O)Nc5c(F)cccc5F)s4)=Cc4ccccc43)cc2)c(N2CC3(CCOCC3)C2)n1` [Example 7], under setting [1], the concentration giving a half-maximal response (EC50) lay within 10 to 50 nM.

Take `Cc1ccc(C(=O)Nc2ccc(C(=O)N3CCC(c4ccc(C(=O)Nc5c(C)cccc5F)s4)=Cc4ccccc43)cc2)c(N2CC3(CCOCC3)C2)n1` [Example 8]: the EC50 under setting [1] lay in the range of 10 to 50 nM.

With `Cc1ccc(C(=O)Nc2ccc(C(=O)N3CCC(c4ccc(C(=O)NC5CC(F)(F)C5)s4)=Cc4ccccc43)cc2)c(N2CC3(CCOCC3)C2)n1` [Example 9], the 50% effective concentration (EC50) under setting [1] fell in the range of 10 to 50 nM.

Regarding `Cc1ccc(C(=O)Nc2ccc(C(=O)N3CCC(c4ccc(C(=O)NC5CCC5)s4)=Cc4ccccc43)cc2)c(N2CC3(CCOCC3)C2)n1` [Example 10], under setting [1], the EC50 was < 10 nM.

On to `Cc1ccc(C(=O)Nc2ccc(C(=O)N3CCC(c4ccc(C(=O)NC56CC(C5)C6)s4)=Cc4ccccc43)cc2)c(N2CC3(CCOCC3)C2)n1` [Example 11], for which the EC50 under setting [1] was 10 to 50 nM.

`Cc1cnc(N2CC3(CCOCC3)C2)c(C(=O)Nc2ccc(C(=O)N3CCC(c4cc(C(=O)NC5CC5)cs4)=Cc4ccccc43)cc2)c1` [Example 12]: the half-maximal effective concentration (EC50) under setting [1] fell in the range of 10 to 50 nM.

As for `CC1=C(c2ccc(C(=O)NC3CC3)s2)CCN(C(=O)c2ccc(NC(=O)c3cc(C)cnc3N3CC4(CCOCC4)C3)cc2)c2ccccc21` [Example 13], the EC50 under setting [1] was > 50 nM.

For `CC1=C(c2ccc(C(=O)Nc3c(C)cccc3F)s2)CCN(C(=O)c2ccc(NC(=O)c3cc(C)cnc3N3CC4(CCOCC4)C3)cc2)c2ccccc21` [Example 14], the EC50 under setting [1] is > 50 nM.

In the case of `Cc1cnc(N2CC3(CCOCC3)C2)c(C(=O)Nc2ccc(C(=O)N3CCC(c4ccc(C(=O)NC5CC5)cc4)=Cc4ccccc43)cc2)c1` [Example 15], the EC50 under setting [1] is < 10 nM.

On to `Cc1cnc(N2CC3(CCOCC3)C2)c(C(=O)Nc2ccc(C(=O)N3CCC(c4ccc(C(=O)Nc5c(C)cccc5F)cc4)=Cc4ccccc43)cc2)c1` [Example 16], for which the EC50 under setting [1] is < 10 nM.

Take `O=C(Nc1ccccc1F)N[C@H]1N=C(c2ccccc2)c2ccccc2NC1=O` [RSV-604, reference compound]: the 50% effective concentration (EC50) (HEp-2) was ~2400 nM.
